Data as given in patent publication US8686113B2 (priority 2009, dated 2014).
Values after ≈ are worked out from the molar mass of the structure shown. Non-standard residues stand in square brackets, D forms with d. Residues, ends and D or L forms follow the SMILES beside them. No end group written: not given here. NMeR = CN[C@@H](CCCNC(=N)N)C(=O)O; hArg = N=C(N)NCCCC[C@H](N)C(=O)O; Agp = N=C(N)NC[C@H](N)C(=O)O; dOrn = NCCC[C@@H](N)C(=O)O; Orn = NCCC[C@H](N)C(=O)O; Dap = NC[C@H](N)C(=O)O

What was measured:
E. coli BL21 A1 = format: cell-based, Escherichia coli; conditions: BL21, 20 h
Description: (§1) The minimum inhibitory concentrations (MIC) of the antimicrobial peptides and peptide derivatives were determined in microdilution assays. These used a continuous peptide dilution in sterile flat-bottomed 96-well microtiter plates (polystyrene, Greiner Bio-One GmbH, Frickenhausen, Germany) and a total volume of 100 μL per well. The aqueous peptide or peptidomimetic solutions were diluted with 1% TSB water, to obtain a final concentration of 256 μg/mL. 50 μL of the peptide or peptidomimetic solution was pipetted into the first well of each series and stirred. From this solution, 50 μL was transferred to the second well, stirred and again 50 μL was transferred to the next well, and so on. A double dilution series is obtained, beginning at 256 μg/mL in the first well to 125 ng/mL in the twelfth well. The bacteria, e.g. E. coli BL21 A1, were cultured overnight at 37° C. in nutrient broth (NB, Carl Roth GmbH+Co. KG, Karlsruhe, Germany). 50 μL of a 5×10^6 bacteria/mL suspension in 1% TSB was added to each well of the microtiter plate and thus a final concentration of the peptides or peptidomimetics from 128 μg/mL (well 1) to 62.5 ng/mL (well 12) was established in each series. The plates were incubated at 37° C. for 20 h and then the absorption was measured at 595 nm with a TECAN microtiter plate spectrophotometer (Tecan Trading AG, Mannedorf, Switzerland). The MIC values of all peptides and peptidomimetics were determined in triplicate. Sterile water was used as negative control. The MIC value represents the lowest peptide concentration at which no bacterial growth is observed after an incubation time of 20 h at 37° C.
(§2) The MIC values of the peptides and peptide derivatives against Escherichia coli BL21 A1 and Micrococcus luteus ATCC 10240 are given in Table 7.

M. luteus 10240 = experiment: Growth inhibition assay (microdilution MIC); format: cell-based, Micrococcus luteus; conditions: 10240, 20 h
Description: as §1, §2

Compound | MIC E. coli BL21 A1 (E. coli BL21 A1) [µg/mL] | MIC M. luteus 10240 (M. luteus 10240) [µg/mL]
H-VDKPPYLPRPRPPRRIYQR-NH2 [compound 79] | 8 | 8
CC[C@@H](C)[C@@H](NC(=O)[C@@H](CCCNC(=N)N)NC(=O)[C@@H](CCCNC(=N)N)NC(=O)[C@H]1CCCN1C(=O)[C@H]1CCCN1C(=O)[C@@H](CCCNC(=N)N)NC(=O)[C@H]1CCCN1C(=O)[C@@H](CCCNC(=N)N)NC(=O)[C@H]1CCCN1C(=O)[C@@H](CC(C)C)NC(=O)[C@@H](Cc1ccc(O)cc1)NC(=O)[C@H]1CCCN1C(=O)[C@H]1CCCN1C(=O)[C@@H](CCCCN)NC(=O)[C@@H](CC(=O)O)NC(=O)[C@H](N)C(C)C)C(=O)N[C@H](Cc1ccc(O)cc1)C(=O)N[C@H](CC(N)=O)C(=O)N[C@H](CCCNC(=N)N)C(N)=O [compound 115] (H-[dV][dD][dK][dP][dP][dY][dL][dP][dR][dP][dR][dP][dP][dR][dR][dI][dY][dN][dR]-NH2) | 64 (≈ 26.8 µM) | 16 (≈ 6.69 µM)
H-VDKPPYLPRPRPPRAIYNR-NH2 [compound 43] | 32 | 16
CC[C@H](C)[C@H](NC(=O)[C@H](CCCN)NC(=O)[C@H](CCCNC(=N)N)NC(=O)[C@@H]1CCCN1C(=O)[C@@H]1CCCN1C(=O)[C@H](CCCNC(=N)N)NC(=O)[C@@H]1CCCN1C(=O)[C@H](CCCNC(=N)N)NC(=O)[C@@H]1CCCN1C(=O)[C@H](CC(C)C)NC(=O)[C@H](Cc1ccc(O)cc1)NC(=O)[C@@H]1CCCN1C(=O)[C@@H]1CCCN1C(=O)[C@H](CCCCN)NC(=O)[C@H](CC(=O)O)NC(=O)[C@@H](N)C(C)C)C(=O)N[C@@H](Cc1ccc(O)cc1)C(=O)N[C@@H](CC(N)=O)C(=O)N[C@@H](CCCCNC(=N)N)C(N)=O [compound 70] (H-VDKPPYLPRPRPPR[Orn]IYN[hArg]-NH2) | 4 (≈ 1.69 µM) | 4 (≈ 1.69 µM)
H-VDKPPYLPRPQPPRRIYNR-OH [compound 12] | 64 | 64
H-VDKPPYLPRPYPPRRIYNR-OH [compound 10] | 128 | 16
H-VDKPPYLPRPRPPRHIYNH-NH2 [compound 64] | 8 | 32
H-VDAPPYLPRPRPPRRIYNR-NH2 [compound 31] | 64 | 32
CC[C@H](C)[C@H](NC(=O)[C@H](CCCNC(=N)N)NC(=O)[C@H](CCCNC(=N)N)NC(=O)[C@@H]1CCCN1C(=O)[C@@H]1CCCN1C(=O)[C@H](CCCNC(=N)N)NC(=O)[C@@H]1CCCN1C(=O)[C@H](CCCNC(=N)N)NC(=O)[C@@H]1CCCN1C(=O)[C@H](CC(C)C)NC(=O)[C@H](Cc1ccc(O)cc1)NC(=O)[C@@H]1CCCN1C(=O)[C@@H]1CCCN1C(=O)[C@H](CCCCN)NC(=O)[C@H](CC(=O)O)NC(=O)[C@@H](N)C(C)C)C(=O)N[C@@H](Cc1ccc(O)cc1)C(=O)N[C@@H](CC(N)=O)C(=O)N[C@@H](CCCCNC(=N)N)C(N)=O [compound 57] (H-VDKPPYLPRPRPPRRIYN[hArg]-NH2) | 8 (≈ 3.33 µM) | 8 (≈ 3.33 µM)
CC[C@H](C)[C@H](NC(=O)[C@H](CCCNC(=N)N)NC(=O)[C@H](CCCNC(=N)N)NC(=O)[C@@H]1CCCN1C(=O)[C@@H]1CCCN1C(=O)[C@H](CCCNC(=N)N)NC(=O)[C@@H]1CCCN1C(=O)[C@H](CCCNC(=N)N)NC(=O)[C@@H]1CCCN1C(=O)[C@H](CC(C)C)NC(=O)[C@H](Cc1ccc(O)cc1)NC(=O)[C@@H]1CCCN1C(=O)[C@@H]1CCCN1C(=O)[C@H](CCCCN)NC(=O)[C@H](CC(=O)O)NC(=O)[C@@H](N)CCCN)C(=O)N[C@@H](Cc1ccc(O)cc1)C(=O)N[C@@H](CC(N)=O)C(=O)N[C@@H](CCCNC(=N)N)C(N)=O [compound 82] (H-[Orn]DKPPYLPRPRPPRRIYNR-NH2) | 8 (≈ 3.33 µM) | 8 (≈ 3.33 µM)
H-VEKPPYLPRPRPPRRIYNR-NH2 [compound 75] | 16 | 8
H-VDKPPYLPRPRPRPRIYNR-NH2 [compound 59] | 8 | 16
CC[C@H](C)[C@H](NC(=O)[C@H](CCCNC(=N)N)NC(=O)[C@H](CCCNC(=N)N)NC(=O)[C@@H]1CCCN1C(=O)[C@@H]1CCCN1C(=O)[C@H](CCCNC(=N)N)NC(=O)[C@@H]1CCCN1C(=O)[C@H](CCCNC(=N)N)NC(=O)[C@@H]1CCCN1C(=O)[C@H](CC(C)C)NC(=O)[C@H](Cc1ccc(O)cc1)NC(=O)[C@@H]1CCCN1C(=O)[C@@H]1CCCN1C(=O)[C@H](CCCCN)NC(=O)[C@H](CC(=O)O)NC(=O)[C@@H](N)C(C)C)C(=O)N[C@@H](Cc1ccc(O)cc1)C(=O)N[C@@H](CC(N)=O)C(=O)N[C@@H](CNC(C)=O)C(N)=O [compound 52] (H-VDKPPYLPRPRPPRRIYN[Dap](Ac)-NH2; N-terminus assumed) | 32 (≈ 13.5 µM) | 64 (≈ 27.1 µM)
CC[C@H](C)[C@H](NC(=O)[C@H](CCCNC(=N)N)NC(=O)[C@H](CCCNC(=N)N)NC(=O)[C@@H]1CCCN1C(=O)[C@@H]1CCCN1C(=O)[C@H](CCCNC(=N)N)NC(=O)[C@@H]1CCCN1C(=O)[C@H](CCCNC(=N)N)NC(=O)[C@@H]1CCCN1C(=O)[C@H](CC(C)C)NC(=O)[C@H](Cc1ccc(O)cc1)NC(=O)[C@@H]1CCCN1C(=O)[C@@H]1CCCN1C(=O)[C@H](CCCCN)NC(=O)[C@H](CC(=O)O)NC(=O)[C@@H](N)C(C)C)C(=O)N[C@@H](Cc1ccc(O)cc1)C(=O)N[C@@H](CC(N)=O)C(=O)N(C)[C@@H](CCCNC(=N)N)C(N)=O [compound 56] (H-VDKPPYLPRPRPPRRIYN[NMeR]-NH2; N-terminus assumed) | 8 (≈ 3.33 µM) | 4 (≈ 1.66 µM)
H-VDKAPYLPRPRPPRRIYNR-NH2 [compound 32] | 8 | 8
H-VDKPPYLPRPRPPRRIYNA-NH2 [compound 47] | 32 | 16
H-VDKPPYLPRPRPPRRAYNR-NH2 [compound 44] | 16 | 16
H-VDKPPYLPRPRPPRRIYAR-NH2 [compound 46] | 8 | 8
H-VDKPPALPRPRPPRRIYNR-NH2 [compound 34] | 128 | 16
CC[C@@H](C)[C@@H](NC(=O)[C@@H](CCCN)NC(=O)[C@@H](CCCNC(=N)N)NC(=O)[C@H]1CCCN1C(=O)[C@H]1CCCN1C(=O)[C@@H](CCCNC(=N)N)NC(=O)[C@H]1CCCN1C(=O)[C@@H](CCCNC(=N)N)NC(=O)[C@H]1CCCN1C(=O)[C@@H](CC(C)C)NC(=O)[C@@H](Cc1ccc(O)cc1)NC(=O)[C@H]1CCCN1C(=O)[C@H]1CCCN1C(=O)[C@@H](CCCCN)NC(=O)[C@@H](CC(=O)O)NC(=O)[C@H](N)C(C)C)C(=O)N[C@H](Cc1ccc(O)cc1)C(=O)N[C@H](CC(N)=O)C(=O)N[C@H](CCCN)C(N)=O [compound 116] (H-[dV][dD][dK][dP][dP][dY][dL][dP][dR][dP][dR][dP][dP][dR][dOrn][dI][dY][dN][dOrn]-NH2) | 64 (≈ 27.8 µM) | 32 (≈ 13.9 µM)
VDKPPYLPRPRPPRPIYNR-NH2 [compound 60] | 8 | 64
H-VDKPPYLPRPRPPRRIYN-NH2 [compound 27] | 32 | 64
CC[C@H](C)[C@H](NC(=O)[C@H](CNC(=N)N)NC(=O)[C@H](CCCNC(=N)N)NC(=O)[C@@H]1CCCN1C(=O)[C@@H]1CCCN1C(=O)[C@H](CCCNC(=N)N)NC(=O)[C@@H]1CCCN1C(=O)[C@H](CCCNC(=N)N)NC(=O)[C@@H]1CCCN1C(=O)[C@H](CC(C)C)NC(=O)[C@H](Cc1ccc(O)cc1)NC(=O)[C@@H]1CCCN1C(=O)[C@@H]1CCCN1C(=O)[C@H](CCCCN)NC(=O)[C@H](CC(=O)O)NC(=O)[C@@H](N)C(C)C)C(=O)N[C@@H](Cc1ccc(O)cc1)C(=O)N[C@@H](CC(N)=O)C(=O)N[C@@H](CCCCNC(=N)N)C(N)=O [compound 65] (H-VDKPPYLPRPRPPR[Agp]IYN[hArg]-NH2) | 4 (≈ 1.68 µM) | 2 (≈ 0.842 µM)
H-VDKPPYLPRPRPPRPIRV-OH [compound 48] | 128 | 8
H-VDKPPYLPRPTPPRRIYNNR-OH [compound 4] | 128 | 64
